Consider two compounds from BindingDB's records for doi:10.1016/j.bmcl.2004.06.041 (Abbott Laboratories, 2004).

In this experiment the target is Vascular endothelial growth factor receptor 2 (Homo sapiens, UniProt P35968). Put plainly: Homogeneous Time-resolved Fluorescence (HTRF) Assay. The following applies: pH 7.4; 22 °C. From the text:
The assay was using baculovirus-expressed recombinant protein kinase and biotinylated poly-Glu-Ala-Tyr substrate.
A general note: Time-resolved FRET reads energy transfer from a long-lived donor to a nearby acceptor.

Structures are written as SMILES.

What is called IC50 is the concentration needed to halve the response being measured. A high value points to weaker potency in that assay.

Chain of Vascular endothelial growth factor receptor 2 (P35968 whole entry): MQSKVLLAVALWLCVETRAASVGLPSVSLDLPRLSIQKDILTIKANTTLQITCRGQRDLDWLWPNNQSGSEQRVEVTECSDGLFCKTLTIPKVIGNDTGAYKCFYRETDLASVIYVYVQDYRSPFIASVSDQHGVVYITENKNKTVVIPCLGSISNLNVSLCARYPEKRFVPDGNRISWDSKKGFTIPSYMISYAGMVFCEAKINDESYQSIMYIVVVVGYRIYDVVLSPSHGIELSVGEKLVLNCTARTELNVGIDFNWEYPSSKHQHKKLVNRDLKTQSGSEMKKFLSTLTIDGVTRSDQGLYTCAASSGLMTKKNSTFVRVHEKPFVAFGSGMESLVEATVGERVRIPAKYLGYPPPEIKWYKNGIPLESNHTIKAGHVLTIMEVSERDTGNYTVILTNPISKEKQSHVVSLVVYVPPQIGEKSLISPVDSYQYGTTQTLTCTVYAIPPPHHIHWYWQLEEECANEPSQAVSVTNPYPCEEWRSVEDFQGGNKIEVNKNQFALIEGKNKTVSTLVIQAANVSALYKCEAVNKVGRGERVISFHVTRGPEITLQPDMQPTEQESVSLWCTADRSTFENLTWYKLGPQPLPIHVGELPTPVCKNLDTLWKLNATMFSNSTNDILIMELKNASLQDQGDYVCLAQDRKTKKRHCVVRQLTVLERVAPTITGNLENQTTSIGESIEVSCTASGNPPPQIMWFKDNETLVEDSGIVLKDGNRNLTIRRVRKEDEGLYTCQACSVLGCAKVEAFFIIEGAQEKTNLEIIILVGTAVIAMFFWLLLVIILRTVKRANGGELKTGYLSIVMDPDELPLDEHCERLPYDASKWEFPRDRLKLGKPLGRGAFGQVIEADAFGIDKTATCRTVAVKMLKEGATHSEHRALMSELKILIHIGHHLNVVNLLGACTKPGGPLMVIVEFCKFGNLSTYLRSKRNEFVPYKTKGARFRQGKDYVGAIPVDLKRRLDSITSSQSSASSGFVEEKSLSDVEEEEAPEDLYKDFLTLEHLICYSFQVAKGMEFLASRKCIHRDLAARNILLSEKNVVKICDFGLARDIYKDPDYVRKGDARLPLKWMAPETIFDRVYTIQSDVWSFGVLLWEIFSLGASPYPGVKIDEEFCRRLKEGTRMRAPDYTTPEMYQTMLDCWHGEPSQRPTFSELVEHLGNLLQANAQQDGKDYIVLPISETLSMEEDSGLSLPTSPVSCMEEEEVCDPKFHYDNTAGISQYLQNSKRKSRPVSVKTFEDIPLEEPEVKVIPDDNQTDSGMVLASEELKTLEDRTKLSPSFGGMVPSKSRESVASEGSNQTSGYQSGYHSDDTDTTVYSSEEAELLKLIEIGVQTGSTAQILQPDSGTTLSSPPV

Take `COc1cc(-c2nn(C3CCC(N4CCN(C)CC4)CC3)c3ncnc(N)c23)ccc1NC(=O)Nc1ccccc1` [1-(4-{(S)-4-Amino-1-[4-(4-methyl-piperazin-1-yl)-cyclohexyl]-1H-pyrazolo[3,4-d]pyrimidin-3-yl}-2-methoxy-phenyl)-3-phenyl-urea]: the IC50 was 0.263 µM.
With `COc1cc(-c2nn(C3CCC(N4CCN(C)CC4)CC3)c3ncnc(N)c23)ccc1NC(=O)c1ccccc1` [N-(4-{(S)-4-Amino-1-[4-(4-methyl-piperazin-1-yl)-cyclohexyl]-1H-pyrazolo[3,4-d]pyrimidin-3-yl}-2-methoxy-phenyl)-benzamide], the concentration for half-maximal inhibition (IC50) was over 50 µM.
